Assay results taken from ChEMBL document CHEMBL1629642, “In vitro efficacy of ST246 against smallpox and monkeypox” (Antimicrob Agents Chemother, 2009).
Active and inactive are the calls of the source. The calls are words filed in the database; no cut-off is given here.

What was measured:
Variola virus [1] = test: Antiviral activity against Variola virus BSH74-sol infected in african green monkey BSC-40 cells at 0.05 to 5 uM assessed as reduction in virus-induced cytopathic effect; format: functional, organism-based
Variola virus [2] = test: Antiviral activity against Variola virus infected in african green monkey vero cells assessed as reduction in virus-induced cytopathic effect; format: functional, organism-based
Variola virus [3] = test: microbe, parasite or virus in culture; conditions: BRZ66-39, BSC-40

With `O=C(NN1C(=O)[C@@H]2[C@@H]3C=C[C@@H]([C@H]4C[C@@H]34)[C@@H]2C1=O)c1ccc(C(F)(F)F)cc1` [TECOVIRIMAT] the Activity (Variola virus [1]) was “Active”, the Activity (Variola virus [2]) was “Active” and the EC50 (Variola virus [3]) was 67 nM.
